The target of this assay is Glycogen synthase kinase-3 alpha (Homo sapiens) (UniProt P49840). The assay can be described thus: concentration-response blocking of human GSK3A – biochemical, luminescence, cell-free homogeneous, retest, dose response (AID 463203). Particulars: GSK-3 alpha enzyme, ADP-Glo luminescence, 60 min.

What is called AC50 is the concentration at which the activity in the assay is half-maximal.

Activity calls are given as the source filed them.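 The calls were made as follows: active = more than half of replicate measurements showing over 20% loss of kinase signal relative to plate controls; inconclusive = some but at most half of replicates over 20% loss; inactive = no replicate over 20% signal loss.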 Some results are limits rather than exact numbers.

Chain of Glycogen synthase kinase-3 alpha (Homo sapiens) (P49840 whole entry, looked up): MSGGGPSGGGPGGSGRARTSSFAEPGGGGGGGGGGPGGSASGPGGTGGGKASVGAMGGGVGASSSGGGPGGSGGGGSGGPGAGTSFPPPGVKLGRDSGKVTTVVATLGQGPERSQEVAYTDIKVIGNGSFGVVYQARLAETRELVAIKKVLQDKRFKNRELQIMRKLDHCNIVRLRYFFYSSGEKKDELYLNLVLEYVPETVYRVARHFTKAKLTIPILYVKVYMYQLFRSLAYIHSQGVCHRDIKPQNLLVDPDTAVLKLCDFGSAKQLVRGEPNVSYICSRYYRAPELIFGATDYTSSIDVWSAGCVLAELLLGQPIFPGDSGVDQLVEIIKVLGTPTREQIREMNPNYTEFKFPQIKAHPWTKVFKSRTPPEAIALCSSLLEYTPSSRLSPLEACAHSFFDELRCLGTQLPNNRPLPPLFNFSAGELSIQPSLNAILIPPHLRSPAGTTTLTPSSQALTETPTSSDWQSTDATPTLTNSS

On to `CN(C)C(=O)Oc1ccc([N+](=O)[O-])cc1`, for which the AC50 is > 30 µM (inactive).

Consider `CC1CCN(Cc2c(C(=O)N/N=C/c3ccc(C(F)(F)F)cc3)nnn2-c2nonc2N)CC1`, for which the AC50 was > 30 µM (inactive).

For the compound `C=CC(=O)Nc1sc2c(c1C(N)=O)CCCC2`, the AC50 is 13.9 µM.

Regarding `Cc1ccc(CSCCNC(=O)c2ccc(C)cc2)cc1`, the AC50 was > 30 µM (inactive).

Regarding `Cc1ccc(S(=O)(=O)c2c(C(=O)c3ccccc3)cnc3cc4c(cc23)OCCO4)cc1`, the AC50 was > 30 µM (inactive).

With `O=C1/C(=C/c2ccco2)Oc2c1ccc(O)c2CN1CCCCC1`, the AC50 was 10 µM.

For the compound `CCOC(=O)c1cc(-c2ccc(F)cc2)n(CC(=O)NCc2cccnc2)c1C`, the AC50 is > 30 µM (inactive).

For `CC1(C)CC(=O)C2=C(C1)Nc1nc(SCCN3CCOCC3)[nH]c(=O)c1C2c1cccs1` (stereo unspecified), the AC50 is > 30 µM (inactive).

Regarding `O=[N+]([O-])c1ccc(Nc2nc(Cl)nc(NCCO)n2)cc1`, the AC50 was > 30 µM (inactive).

For the compound `CC(=O)Nc1cccc(-c2csc(N)n2)c1`, the AC50 was > 30 µM (inactive).

Consider `CCN1/C(=C\C(C)=O)Sc2ccc(OC)cc21`, for which the AC50 was 17.4 µM.

Consider `C/C(=N\NC(=O)c1nnn(-c2nonc2N)c1-c1ccccc1)c1cccnc1`, for which the AC50 was 18.3 µM.

`Cc1cc(NCc2ccco2)n2c(nc3ccccc32)c1C#N`: the AC50 is > 30 µM (inactive).

Take `Cc1ccccc1OCCSc1nnc(C)n1-c1ccccc1`: the AC50 was > 30 µM (inactive).

On to `N#CCCn1cc(/C=N/O)c(-c2ccc(Cl)cc2)n1`, for which the AC50 is 21 µM.

Turning to `CCOC(=O)N1CCC(N2CCN(S(=O)(=O)c3ccc(Cl)cc3)CC2)CC1`, the AC50 was > 30 µM (inactive).

In the case of `O=C(O)Cn1c(=O)c2c3c(sc2n(Cc2ccc(Cl)cc2Cl)c1=O)CCCC3`, the AC50 was > 30 µM (inactive).

Regarding `Cc1ccnc(NC(=O)Cn2c(=O)oc3cc(S(=O)(=O)N4CCCC4)ccc32)c1`, the AC50 is 26.9 µM.

For `COc1ccccc1NC(=O)c1cc(Cl)ccc1NC(=O)c1ccco1`, the AC50 was > 30 µM (inactive).

With `COc1ccc(C=O)cc1OS(=O)(=O)c1ccccc1[N+](=O)[O-]`, the AC50 was > 30 µM (inactive).

For `CC(C)(C)OC(=O)N1CCC(NC(=O)c2[nH]cnc2C(=O)Nc2ccc(Cl)cc2)CC1`, the AC50 is > 30 µM (inactive).

Regarding `CN(C)C(=S)Nc1ccc([N+](=O)[O-])cc1`, the AC50 is > 30 µM (inactive).

As for `Cc1cc(C)c2[nH]c(O)c(N=Nc3ccc(C(=O)O)cc3)c2c1`, the AC50 is > 30 µM (inactive).

For `CCOC(=O)CSc1ncnc2c(C(=O)OCC)c3n(c12)CCC3`, the AC50 is > 30 µM (inactive).

In the case of `Cc1cc(C(C#N)c2ccccc2F)n2ncnc2n1` (stereo unspecified), the half-maximal activity concentration (AC50) is 1.87 µM.

Take `CCN1CCN(Cc2c(O)ccc3c2O/C(=C\C=C\c2ccccc2OC)C3=O)CC1`: the AC50 was > 30 µM (inactive).

For the compound `Nc1nnc(SCC(=O)Nc2sc3c(c2C(=O)c2ccccc2)CCCC3)s1`, the AC50 was > 30 µM (inactive).

In the case of `COC(=O)c1sccc1-c1ccc(C(N)=O)o1`, the AC50 was 26.8 µM.

For `CN(C)c1ccc(/C=N/NC(=O)c2nnn(-c3nonc3N)c2CN(C)c2ccccc2)cc1`, the AC50 was > 30 µM (inactive).

`N#Cc1c(N)n(CCNC(=O)c2cccs2)c2nc3ccccc3nc12`: the AC50 is 25.7 µM.

In the case of `CCOC(=O)c1cc(CC)sc1NC(=O)CN1CCN(C(=O)c2ccco2)CC1`, the AC50 was > 30 µM (inactive).

Regarding `O=C(Nc1cccc(F)c1)C1CCCN1S(=O)(=O)c1cccc2cccnc12` (stereo unspecified), the concentration at half-maximal activity (AC50) is 11.8 µM.

As for `Cc1cc(/C=N/Nc2ccc([N+](=O)[O-])cn2)c(C)n1-c1cccc(C(=O)O)c1`, the AC50 is 14.6 µM.

With `COc1ccc(Cl)cc1C(=O)Nc1ccc(NC(=O)c2ccco2)cc1`, the AC50 was > 30 µM (inactive).

For the compound `COc1ccc(C(=O)Nc2nc(C)cc(C)n2)cc1`, the AC50 was > 30 µM (inactive).

`CCN1C(=O)/C(=C\c2ccco2)C(C(=O)OC)=C1C`: the AC50 was > 30 µM (inactive).

For `O=C(Oc1cccc(NC(=O)c2ccco2)c1)c1cccc(S(=O)(=O)N2CCCCC2)c1`, the AC50 was > 30 µM (inactive).

For the compound `O=C(CSCc1ccc([N+](=O)[O-])cc1)NN=C1CCCCCC1`, the AC50 was > 30 µM (inactive).

Take `CCN1/C(=C/C=C/c2sc3ccccc3[n+]2CC)Sc2ccccc21`: the AC50 was 24.6 µM.

As to `COc1cc(C(=O)NCC(=O)N/N=C\C(C)=C/c2ccccc2)cc(OC)c1OC`, the AC50 is > 30 µM (inactive).

In the case of `CSc1ncccc1-c1nc2ccccc2[nH]1`, the AC50 is > 30 µM (inactive).

With `O=C1NC(=Nc2ccccc2)S/C1=C/c1cccs1`, the AC50 is > 30 µM (inactive).

In the case of `CC(=O)Nc1ccc(NC(=O)CSc2nc3[nH]ncc3c(=O)n2-c2ccccc2)cc1`, the AC50 was > 30 µM (inactive).

Regarding `NC(=O)c1cn(C2OC(CO)C(O)C2O)c2ncnc(N)c12` (stereo unspecified), the AC50 is 6.52 µM.

With `Cc1nnc(SCC(=O)Nc2ccc(Br)cn2)[nH]c1=O`, the AC50 was 13.7 µM.

With `COc1ccc(C2C3(C#N)C(N)=NC(OC)(OC)C23C#N)cc1` (stereo unspecified), the AC50 was > 30 µM (inactive).

As for `COc1cccc(/C=N/n2nnnc2N)c1OCC#N`, the AC50 is > 30 µM (inactive).

Take `COc1ccc(Nc2nc(-c3cc4cccc(OC)c4oc3=O)cs2)cc1`: the AC50 was > 30 µM (inactive).

For `Cc1cccc(NC(=O)CSCC(=O)OCc2ccccn2)c1`, the AC50 was > 30 µM (inactive).

Consider `COc1ccc2nc(NC(=O)CSc3nc4ccccc4o3)sc2c1`, for which the concentration at half-maximal activity (AC50) is 28.8 µM.

With `O=C(OC1CO[C@H]2O[C@@H]1[C@H](OC(=O)c1ccccc1)[C@H]2OC(=O)c1ccccc1)c1ccccc1` (stereo partly specified), the AC50 is > 30 µM (inactive).

Consider `Cc1cccc(C(=O)OCC(=O)Nc2c(C)n(C)n(-c3ccccc3)c2=O)c1`, for which the AC50 was > 30 µM (inactive).

As to `Cc1ccc(Cc2c(C)nc3nc(SCC(=O)NCCCN4CCCCCC4)nn3c2C)cc1`, the AC50 is > 30 µM (inactive).

Regarding `O=c1[nH]ncc(N/N=C\c2ccncc2)c1Cl`, the AC50 was 25.4 µM.

Consider `COc1ccc(CNC(=O)CN(CC2CCCO2)C(=O)CNS(=O)(=O)c2ccccc2)cc1` (stereo unspecified), for which the AC50 is > 30 µM (inactive).

Turning to `CCOC(=O)N1CCC(NC(=O)CCc2nc(C3=CCN(C)CC3)no2)CC1`, the AC50 was > 30 µM (inactive).

`Clc1ccccc1C1=Nn2c(nnc2-c2ccncc2)SC1`: the AC50 is 2.35 µM.

As for `O=C(CSc1nnc(SCc2ccc(Cl)cc2)s1)N/N=C/c1ccccc1C(=O)O`, the AC50 is > 30 µM (inactive).

As for `COc1cccc(C2CC(=O)N3CN(c4ccccc4F)CSC3=C2C#N)c1` (stereo unspecified), the AC50 is > 30 µM (inactive).

On to `N#CC1=C2SCN(c3ccc(F)cc3)CN2C(=O)CC1c1cccc(F)c1` (stereo unspecified), for which the AC50 was 29.4 µM.

Turning to `CC(=O)Nc1c(C)ccc2nsnc12`, the AC50 is > 30 µM (inactive).

With `COc1ccc2ccccc2c1C1CC(=O)N2CN(Cc3ccco3)CSC2=C1C#N` (stereo unspecified), the AC50 is > 30 µM (inactive).

For `NC(=O)c1c(NC(=O)C(=O)N2CCOCC2)sc2c1CCC2`, the AC50 was > 30 µM (inactive).

Turning to `COC(=O)c1oc2ccc(Cl)cc2c1N`, the AC50 is > 30 µM (inactive).

As for `Fc1cccc(Nc2nc(-c3ccncc3)nc3ccccc23)c1`, the AC50 is > 30 µM (inactive).

Regarding `Clc1nccnc1N/N=C/c1ccc(Br)cc1`, the AC50 was > 30 µM (inactive).

(Values after PubChem BioAssay AID463203 (Broad Institute, 2010).)
